Results from publication PMC11271967, “An inhibitory mechanism of AasS, an exogenous fatty acid scavenger: Implications for re-sensitization of FAS II antimicrobials” (PLOS Pathogens, 2024).
Values joined by “and” are separate entries in the source; they are usually repeats but may differ in a detail not shown here. Equal entries are not always repeated. Where two headings read alike, the source gives them in different places.

Legend:
AasS [1] = experiment: In vitro enzymatic activity of AasS (acyl-ACP formation, conformationally-sensitive urea PAGE, ImageJ semi-quantitation); format: biochemical, Vibrio harveyi
[2] = tested on: AasS-expressing E. coli ΔbioC strain; experiment: AasS-based bypass of biotin synthesis, bacterial viability on M9 agar; format: cell-based, Escherichia coli; details: M9 agar with E-C7 as sole carbon source; 0, 50, 100, 500 μM tested
Description: Fig 4 Integrated evidence for the inhibition of AasS action with E-C7 fatty acid by C10-AMS compound. A. Schematic diagram of AasS-catalyzed ligation of E-C7 with holo-ACP recipient to produce E-C7-ACP. […] A representative photograph of three independent trials was given. C. Relatively-quantitative analysis (for the inhibitory efficacy of C10-AMS on AasS-catalyzed E-C7-ACP production. As for AasS reaction (panel B), unlike the three components that are at constant levels, namely (i) AasS (31.25 nM), (ii) E-C7 (600 μM), and (iii) ACP (3 μg), C10-AMS inhibitor was supplemented at varied ratio in relative to the AasS enzyme (ranging from 0:1, 25:1, 50:1, 100:1, 200:1, 300:1, 400:1, to 500:1). The ImageJ software was applied to measure the relative percentage (%) of E-C7 fatty acylation in each AasS reaction. The resultant graphs were plotted from three independent experiments, in which the output was expressed as means ± SD (standard deviations). D. Schematic diagram for C10-AMS inhibition of AasS-based bypass of biotin requirement by the E. coli ΔbioC biotin auxotroph on the non-permissive condition. […] Log-phase cultures in a series of 10-fold dilution (shown in panel on right hand), were spotted on the x-gal-containing M9 agar plates supplemented with C10-AMS inhibitor at varied levels (0, 50, 100, to 500 μM). The addition of x-gal substrate enabled the occurrence of blue colonies for better photographing, and viable colonies were highlighted with yellow arrows.
Given that AasS ligates E-C7 fatty acid with holo-ACP, giving E-C7-ACP, an alternative precursor for bacterial biotin synthesis, plasmid-borne aasS expression in ΔbioC biotin auxotroph strain is assumed to overcome the requirement of the primary BioC step [58, 83]. Apart from its WT, three single mutants of AasS (D411A, R426A, and K432A) were examined in vivo, of which the compromised activity is presumably proportional to the varied viability of the ΔbioC reporter strains on the non-permissive M9 growth condition. To test its inhibitory effect, the C10-AMS inhibitor in a series of dilution was supplemented. […]

AasS [3] = molecular target: AasS (Vibrio harveyi, UniProt Q00IB3); experiment: Michaelis-Menten curves of AasS reaction with C10-AMS supplemented; format: biochemical
Description: To ascertain this hypothesis, we set up three combinations of AasS reaction with the varied order of C10-AMS inhibitor added in relative to C10 substrate. Namely, these included (i) addition of C10-AMS after C10 pre-incubation (S1B Fig), (ii) simultaneous addition of C10-AMS and C10 (S1C Fig), and (iii) supplementation of C10-AMS prior to C10 (S1D Fig). […] Next, we generated Michaelis-Menten curves of AasS enzyme to evaluate the inhibitory pattern of C10-AMS against ATP cofactor and C10 acyl substrate (S2 Fig).
Supplementary file ppat.1012376.s004.tif: S2 Fig Use of Michaelis-Menten curves to evaluate inhibition mode of AasS by the C10-AMS molecule. Michaelis-Menten curves of AasS reaction for the ATP cofactor (A) and C10 acyl substrate (C), on the condition of C10-AMS inhibitor supplemented at varied concentrations. C10-AMS was added at different level (ranging from 0, 125, 250, to 500 nM). Based on the dogma of Michaelis-Menten equation, a number of crosspoints of two vertically-intersecting dashed-lines (indicated with arrows) were given to determine the values of Km and Vmax. Of note, the coordinate (x,y) of the resultant crosspoint denotes the number (Km, Vmax /2). The values of Km and Vmax for AasS inhibited by C10-AMS in relative to ATP cofactor (B) and C10 substrate (D). […] Designations: Km, Michaelis constant; Vmax, Maximum velocity. (TIF)

[4] = increasing C10-AMS while varying ATP

Chain of AasS (Vibrio harveyi, UniProt Q00IB3) (Q00IB3 entry or part of it): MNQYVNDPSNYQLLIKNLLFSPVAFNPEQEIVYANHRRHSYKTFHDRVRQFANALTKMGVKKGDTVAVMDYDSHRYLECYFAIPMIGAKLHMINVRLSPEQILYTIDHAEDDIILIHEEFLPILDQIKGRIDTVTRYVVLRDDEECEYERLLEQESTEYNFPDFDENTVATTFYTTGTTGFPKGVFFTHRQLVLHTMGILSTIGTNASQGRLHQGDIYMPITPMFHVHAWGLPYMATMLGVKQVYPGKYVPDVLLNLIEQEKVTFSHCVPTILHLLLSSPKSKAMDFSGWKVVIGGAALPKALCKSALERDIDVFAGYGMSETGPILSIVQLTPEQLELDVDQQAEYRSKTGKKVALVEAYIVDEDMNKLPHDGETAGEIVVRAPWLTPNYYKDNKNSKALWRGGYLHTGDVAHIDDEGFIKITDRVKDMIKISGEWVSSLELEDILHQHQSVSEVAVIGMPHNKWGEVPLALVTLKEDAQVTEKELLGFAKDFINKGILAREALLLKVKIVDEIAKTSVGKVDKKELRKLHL

With `CCCCCCCCCC(=O)NS(=O)(=O)OC[C@H]1O[C@@H](n2cnc3c(N)ncnc32)[C@H](O)[C@@H]1O` [C10-AMS] the “inhibition of C10 fatty acylation, Average (S1E Fig, second block; order of addition not printed)” value (AasS [1]) was 64.1924% and 78.0145% and 84.8528% and 86.8699%, the “inhibition of C10 fatty acylation, Average (S1E Fig, third block; order of addition not printed)” value (AasS [1]) was 82.6351% and 89.1845% and 93.1119% and 91.664% and the Ki (AasS [1]; C10 substrate fixed at 80 μM, AasS 3 nM, semi-quantitative gel assay, read-out: inhibition constant (Ki) of C10-AMS vs AasS) was ~620 nM and 620 nM and ~600 nM. For the same molecule, the Ki (AasS [1]; E-C7 600 μM, AasS 31.25 nM, read-out: Ki for E-C7 acyl substrate) was ~2950 nM and 2950 nM, the Ki (AasS [1]; condition 1#, C10 80 μM, AasS 3 nM, read-out: Ki, order-of-addition experiment) was 670 nM and the Ki (AasS [1]; condition 2#, C10 80 μM, AasS 3 nM, read-out: Ki, order-of-addition experiment) was 1370 nM. For the same molecule, the “C10-AMS level that markedly impaired AasS-based bypass of biotin synthesis” value [2] was “over 100 μM”, the “AasS reaction rate, Michaelis-Menten curve for ATP, Average” value (shortened to “AasS reaction rate … for ATP, Average”) (AasS [3]; 125 nM C10-AMS, ATP 0.125 (unit not given)) was 0.1701 and the “AasS reaction rate … for ATP, Average” value (AasS [3]; 125 nM C10-AMS, ATP 0.25) was 0.2829. The “AasS reaction rate … for ATP, Average” value (AasS [3]; 125 nM C10-AMS, ATP 0.5) was 0.452, the “AasS reaction rate … for ATP, Average” value (AasS [3]; 125 nM C10-AMS, ATP 1) was 0.6373 and the “AasS reaction rate … for ATP, Average” value (AasS [3]; 125 nM C10-AMS, ATP 2) was 0.8268. The “AasS reaction rate, Michaelis-Menten curve for C10 acyl substrate, Average” value (AasS [3]; 125 nM C10-AMS, C10 5 (unit not given)) was 0.6857, the “AasS reaction rate, Michaelis-Menten curve for C10 acyl substrate, Average” value (AasS [3]; 125 nM C10-AMS, C10 10) was 0.7781 and the “AasS reaction rate, Michaelis-Menten curve for C10 acyl substrate, Average” value (AasS [3]; 125 nM C10-AMS, C10 20) was 0.8956. For the same molecule, the “AasS reaction rate, Michaelis-Menten curve for C10 acyl substrate, Average” value (AasS [3]; 125 nM C10-AMS, C10 40) was 0.924, the “AasS reaction rate … for ATP, Average” value (AasS [3]; 250 nM C10-AMS, ATP 0.125 (unit not given)) was 0.1042 and the “AasS reaction rate … for ATP, Average” value (AasS [3]; 250 nM C10-AMS, ATP 0.25) was 0.1505. For the same molecule, the “AasS reaction rate … for ATP, Average” value (AasS [3]; 250 nM C10-AMS, ATP 0.5) was 0.2695, the “AasS reaction rate … for ATP, Average” value (AasS [3]; 250 nM C10-AMS, ATP 1) was 0.5022 and the “AasS reaction rate … for ATP, Average” value (AasS [3]; 250 nM C10-AMS, ATP 2) was 0.6244. For the same molecule, the “AasS reaction rate, Michaelis-Menten curve for C10 acyl substrate, Average” value (AasS [3]; 250 nM C10-AMS, C10 5 (unit not given)) was 0.3359, the “AasS reaction rate, Michaelis-Menten curve for C10 acyl substrate, Average” value (AasS [3]; 250 nM C10-AMS, C10 10) was 0.4164 and the “AasS reaction rate, Michaelis-Menten curve for C10 acyl substrate, Average” value (AasS [3]; 250 nM C10-AMS, C10 20) was 0.4772. For the same molecule, the “AasS reaction rate, Michaelis-Menten curve for C10 acyl substrate, Average” value (AasS [3]; 250 nM C10-AMS, C10 40) was 0.4877, the “AasS reaction rate … for ATP, Average” value (AasS [3]; 500 nM C10-AMS, ATP 0.125 (unit not given)) was 0.0721 and the “AasS reaction rate … for ATP, Average” value (AasS [3]; 500 nM C10-AMS, ATP 0.25) was 0.08914. For the same molecule, the “AasS reaction rate … for ATP, Average” value (AasS [3]; 500 nM C10-AMS, ATP 0.5) was 0.1634, the “AasS reaction rate … for ATP, Average” value (AasS [3]; 500 nM C10-AMS, ATP 1) was 0.2728 and the “AasS reaction rate … for ATP, Average” value (AasS [3]; 500 nM C10-AMS, ATP 2) was 0.3695. The “AasS reaction rate, Michaelis-Menten curve for C10 acyl substrate, Average” value (AasS [3]; 500 nM C10-AMS, C10 5 (unit not given)) was 0.2278, the “AasS reaction rate, Michaelis-Menten curve for C10 acyl substrate, Average” value (AasS [3]; 500 nM C10-AMS, C10 10) was 0.2903 and the “AasS reaction rate, Michaelis-Menten curve for C10 acyl substrate, Average” value (AasS [3]; 500 nM C10-AMS, C10 20) was 0.3259. The “AasS reaction rate, Michaelis-Menten curve for C10 acyl substrate, Average” value (AasS [3]; 500 nM C10-AMS, C10 40) was 0.3858, the “change of Michaelis constant (Km) of AasS” value (AasS [3]; [4]) was “increase” and the “change of maximum velocity (Vmax) of AasS” value (AasS [3]; [4]) was “declined”. For the same molecule, the “mode of inhibition against ATP ligand” value (AasS [3]; varying ATP, C10-AMS 0-500 nM) was “mixed inhibition” and the “inhibitory pattern for the C10 acyl substrate” value (AasS [3]; varying C10, C10-AMS 0-500 nM) was “mixed type of inhibition”.
